Measurements published in US6699908B2, “Methods for providing safe local anesthesia” (Euro-Celtique, S.A., priority 1996, dated 2004).
Counter-ions that a name gives are not always drawn.

How the values were obtained:
[1] = system: sciatic nerve; assay: Local injection proximal to the sciatic nerve, rat hot plate assay / dose-response; type: in vivo; conditions: rats, local injection of 25 mg/kg (8 mg/nerve)
[2] = system: Sprague-Dawley rats; assay: Single dose toxicity (acute lethality) in rats, intramuscular; type: in vivo; conditions: for Mortality: I.M.
Protocol: Sprague-Dawley rats from Charles River, 6-8 weeks of age (body weight about […] for females and about 200-290 grams for males) were used for these studies.
Male and female rats were dosed intramuscularly in the hind limb with bupivacaine base (the form used in the microspheres), aqueous bupivacaine HCl, or LAB. The animals were examined for pharmacotoxic signs (including tremors and convulsions, and death).

[3] = in vivo; cited from earlier work

For `CCCCN1CCCCC1C(=O)Nc1c(C)cccc1C` (stereo not drawn) [Bupivacaine HCl, bupivacaine HCl], the “deaths of the animals” value [1] was “about 10%”, the Mortality ([2]; 5 mg/kg) was 0/4 and the Mortality ([2]; 10 mg/kg) was 0/4. The Mortality ([2]; 25 mg/kg) was 0/4, the Mortality ([2]; 50 mg/kg, HCl) was 4/4 and the Mortality ([2]; 100 mg/kg, HCl) was 4/4. The lowest lethal dose ([2]; intramuscular dosing) was 10.6 mg/kg and the “paralysis of the hindlimb (local motor anesthesia)” value ([2]; intramuscular dosing in the hind limb) was “More transient paralysis”.
For `CCCCN1CCCCC1C(=O)Nc1c(C)cccc1C` (stereo not drawn) [Bupivacaine free base, bupivacaine base], the Mortality ([2]; 50 mg/kg) was 1/4, the Mortality ([2]; 100 mg/kg) was 1/4 and the Mortality ([2]; 150 mg/kg) was 2/4.
In the case of `CCCCN1CCCCC1C(=O)Nc1c(C)cccc1C` (stereo not drawn) [bupivacaine], the “plasma concentrations associated with toxicity” value [3] is listed as over 1600 ng/mL.
